Experimental data as given in PubChem BioAssay (NCI).
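The compound was tested at five concentrations on cells cultured in 96-well plates, with a 48-hour exposure period. Abbreviation: GI50, concentration required for 50% inhibition of growth. The concentration for full growth arrest is given as TGI.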

Columns and labels:
Assay in all cases: NCI-60 cell line screen, 48 h
SN12C renal = tested on: SN12C renal
MOLT-4 leukemia = tested on: MOLT-4 leukemia
SF-295 CNS = tested on: SF-295 CNS
OVCAR-5 ovarian = tested on: OVCAR-5 ovarian
HCT-116 colon = tested on: HCT-116 colon
SK-MEL-2 melanoma = tested on: SK-MEL-2 melanoma
T-47D breast = tested on: T-47D breast
NCI-H460 lung = tested on: NCI-H460 lung
HCT-15 colon = tested on: HCT-15 colon
NCI-H23 lung = tested on: NCI-H23 lung

SMILES	GI50 (SN12C renal) [µM]	TGI (SN12C renal) [µM]	GI50 (MOLT-4 leukemia) [µM]	TGI (MOLT-4 leukemia) [µM]	GI50 (SF-295 CNS) [µM]	TGI (SF-295 CNS) [µM]	GI50 (OVCAR-5 ovarian) [µM]	TGI (OVCAR-5 ovarian) [µM]	GI50 (HCT-116 colon) [µM]	TGI (HCT-116 colon) [µM]	GI50 (SK-MEL-2 melanoma) [µM]	TGI (SK-MEL-2 melanoma) [µM]	GI50 (T-47D breast) [µM]	TGI (T-47D breast) [µM]	GI50 (NCI-H460 lung) [µM]	TGI (NCI-H460 lung) [µM]	GI50 (HCT-15 colon) [µM]	TGI (HCT-15 colon) [µM]	GI50 (NCI-H23 lung) [µM]	TGI (NCI-H23 lung) [µM]
Cc1ccc(CN2CCC(C(=O)Nc3ccc(-c4cc5ccccc5[nH]4)cc3)CC2)o1	> 100	> 100	> 100	> 100	71	> 100	> 100	> 100	> 100	> 100	> 100	> 100	> 100	> 100	> 100	> 100	> 100	> 100	> 100	> 100
Fc1ccc(NC(=S)SCc2ccc3c(c2)OCO3)cc1F	–	39.4	–	39.8	–	> 100	–	46.3	–	> 100	–	36	–	33	–	> 100	–	34.5	–	51.6
CCOC(=O)Cn1c(C(F)(F)F)nc2nc(Cl)c(Cl)nc21	–	> 100	–	97.6	–	> 100	–	> 100	–	> 100	–	60.2	–	> 100	–	> 100	–	> 100	–	> 87.4
C=CC(=O)Nc1cc(Nc2ncc(C(=O)OC(C)C)c(-c3cn(C)c4ccccc34)n2)c(OC)cc1N(C)CCN(C)C	3.02	15.4	2.9	11.4	5.11	10.6	2.72	18.1	3.46	20	4.3	11	0.396	14	6.57	14.8	1.79	5.05	9.02	25.3
CO/C(=N\N=C\c1ccc(C(F)(F)F)cc1)c1ccncc1	–	> 10	–	> 10	–	> 10	–	> 10	–	> 10	–	> 10	–	> 10	–	> 10	–	> 10	–	> 10
C=C(C)C(OC)C(O)CC1(C)CC(O)CC(C)(C2CCC3OC(C4(C)CCC(Br)C(C)(C)O4)CCC3(C)O2)O1 (stereo not given)	18.3	39.4	13.5	29.4	22.7	62.2	20.5	38.7	20.6	51.7	18.1	36.5	2.27	22.2	17.7	39.3	26.2	> 68	16	34.6
FC(F)(F)c1cccc(Nc2nc(-c3ccccc3)nc3ncccc23)c1	5	64.3	3.11	9.04	2.61	8.34	13.2	90.4	3.62	13.7	6.57	25.5	3.53	15.2	3.45	12.6	3.28	23.7	5.03	28.4
O=C(Nc1ccc(-n2ccc3c(NC(=O)c4ccccc4)nccc32)cc1)c1ccc(Cl)c(C(F)(F)F)c1	2.25	18.3	0.351	> 20.7	0.293	10	3.84	27.3	0.0824	0.989	6.16	31.6	6.2	20.4	0.0442	1.2	0.0275	2.83	7.16	> 32.9
O=C1NC(=NCCc2cccc(F)c2)S/C1=C\c1ccc2ncccc2c1	> 16	> 25	8.72	> 25	2.56	> 25	> 25	> 25	1.3	> 25	15.8	> 25	6.89	> 25	1.39	> 25	0.77	> 25	19.2	> 25
Cc1ccc2c(C)c3c(ccc4ccccc43)c[n+]2c1	2.18	18.2	5.54	28.4	3.04	31.7	39.5	> 100	17.3	78.7	15.4	33.6	1.73	7.18	5.1	25.1	77.7	> 100	3.96	38.6
NS(=O)(=O)OC[C@@H]1C[C@@H](n2ccc3c(NC4CCc5ccccc54)ncnc32)C[C@@H]1O (stereo not given in full)	0.614	> 100	0.37	11.1	0.337	4.52	16.4	96.9	0.103	5.46	0.74	21	0.0607	63.6	0.341	23.9	2.59	70.1	1.34	46.1
CCN1/C(=C\c2cc[n+](CC)c3ccccc23)C=Cc2ccccc21	0.233	11.9	0.207	4.44	0.223	2.9	0.611	13.8	0.124	10.3	0.231	10.9	0.0403	1.75	0.193	1.09	2.84	13.3	0.0871	7.56
COc1cc2c(c3oc4c(O)cccc4c(=O)c13)CC(C(C)(O)CO)O2 (stereo not given)	–	> 100	–	62.2	–	> 100	–	> 100	–	> 100	–	> 100	–	> 100	–	> 100	–	> 100	–	> 100
